Data published in patent publication US20220295782A1, “METHOD FOR PRODUCING FROZEN BODY OF THREE-DIMENSIONAL TISSUE AGGREGATE OF RETINAL PIGMENT EPITHELIAL CELLS” (NICHIREI BIOSCIENCE INC., priority 2019, published 2022).
Read-outs that look alike come from different tables or passages of the source.

System: RPE cells
Method: RPE cells (manufactured by Lonza K.K., 00194987) were seeded on a 96-well plate (Falcon, 353072) at 3.3×10^4 cells/well, and cultured in a maintenance medium (350 mL of DMEM (Sigma, D6046), 150 mL of F12 HAM (Sigma, N6658), 10 mL of B27 (Invitrogen, 17504-044), 5 mL of 200 mM L-glutamine (Sigma, G7513), 10 ng/mL of bFGF (Wako, 060-04543), […] of SB431542 hydrate (Sigma, S4317)) until the cells reached confluent. The cultured cells were washed with PBS(−) at room temperature, and then exposed to a pretreatment solution for 10 minutes or 30 minutes.
As the pretreatment solutions, solutions having EG concentrations of 10 (v/v) %, 12.5 (v/v) %, 15 (v/v) %, 17.5 (v/v) % and 20 (v/v) % were used. As the solvent of the pretreatment solution, a Dulbecco's modified Eagle's medium (DMEM) supplemented with 2 mM L-glutamine or PBS(−) was used.

OCCO [EG, ethylene glycol]
initial toxicity (metabolic activity of cells, MTS assay) (0 hours of culture time, EG 10-20 (v/v) % in DMEM supplemented with 2 mM L-glutamine, exposure 10 minutes): increased in a concentration-dependent manner from the EG concentration of 12.5 (v/v) % | time to recovery of metabolic activity (30-minute exposure versus 10-minute exposure): longer time to recovery is required | cytotoxicity (MTS assay) (30 minutes of exposure time to the pretreatment solution): same tendency of cytotoxicity as in the results of FIG. 1 | cytotoxicity (MTS assay) (PBS(-) used as the solvent): the same tendency as when the DMEM medium supplemented with glutamine was used | culture time in which recovery of metabolic activity is possible (up to EG concentration of 17.5 (v/v) %, DMEM with glutamine, exposure 10 minutes): about 24 hours
